Experimental findings from PMC7290441 (Viruses, 2020) are described below.

Counter-ions that a name gives are not always drawn.

In this test the target is PR8M2-S (A27V/N31S reverse mutant of PR8 M2) (Influenza A virus, UniProt P06821, A27V/N31S). The class given is biochemical. The following applies: pH 5.2.

In the case of `CC(CCc1ccccc1)NC(C)C(O)c1ccc(O)cc1` (centres unmarked) [Nylidrin, nylidrin], the “effect on proton channel function of PR8M2-S” value is recorded as “no effect”.
The result for `NC12CC3CC(CC(C3)C1)C2` [AMT, amantadine hydrochloride] reads “inhibited”.
